The values below come from paper PMC6380468, “Investigations on small molecule inhibitors targeting the histone H3K4 tri-methyllysine binding PHD-finger of JmjC histone demethylases” (Bioorganic & Medicinal Chemistry, 2018).

One test addresses T1, KDM7C(PHD) (Homo sapiens, UniProt O75151).
T1 construct: made in house
T1 sequence (O75151 5-56 limits assumed): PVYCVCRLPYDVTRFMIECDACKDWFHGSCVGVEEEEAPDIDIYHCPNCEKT
The test is described as follows: AlphaScreen displacement of H3K4me3-Bn from His-KDM7C(PHD). The test is classed as binding. To be noted: AlphaScreen; 25 nM KDM7C(PHD) and 6.25 nM peptide; n ≥ 3; read-out: IC50 for displacement of H3K4me3-Bn from His-KDM7C(PHD). As for the experimental part:
(§1) For peptide displacement assays, 5 µL of the inhibitor dilution series (at a concentration of 4% DMSO in AlphaScreen assay buffer) was pre-incubated with 5 µL of the protein at RT for 15 minutes. Peptide solution (5 µL) was added and incubated for 30 minutes at RT, followed by the addition of 5 µL of a mixture of AlphaScreen Streptavidin donor beads and Nickel Chelate acceptor beads in AlphaScreen assay buffer (20 µg/mL final). The contents were incubated for 60-120 minutes at RT in the dark, followed by measurement of luminescence on a BMG Labtech Pherastar plate reader (Software Ver. 5.30 R3, Firmware Ver. 1.21). The data was plotted in Prism Ver 7.01 (GraphPad Software, Inc.) and fitted to a Log(inhibitor) v/s response – variable slope model in order to obtain IC50 values.
In general terms: Alpha assays give light when donor and acceptor beads are brought close together.

For the next test, the target named is T2, His-KDM5A(PHD3) (Homo sapiens, UniProt P29375).
T2 construct: KDM5A(PHD3) (1542 – 1660), encoded by a pGTLV2 vector; made in house; host or cells: E. coli Rosetta 2(DE3)pLysS
T2 sequence (P29375 1542-1660): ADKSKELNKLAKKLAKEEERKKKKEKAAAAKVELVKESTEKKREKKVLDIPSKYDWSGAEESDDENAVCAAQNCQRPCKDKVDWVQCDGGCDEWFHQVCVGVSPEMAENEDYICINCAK
The test is described as follows: AlphaScreen displacement assay, H3K4me3-Bn from His-KDM5A(PHD3). The test is classed as binding. The method, then:
AlphaScreen is a homogenous bead-based assay used to study protein-protein interactions.[28] […] AlphaScreen beads were then added and incubated for 1 h. Changes in the AlphaScreen signals with increasing inhibitor concentrations were then measured to quantify the level of KDM5A(PHD3) and H3K4me3 binding, and IC50 values were determined.
His-tagged PHD finger constructs and H3K4me3-Bn peptides were diluted into AlphaScreen assay buffer (50mM HEPES, 150mM NaCl, 0.1% BSA, 0.01% Tween20, pH 7.5). An 8-point 1:2 dilution series was made for both protein and peptide. With a multichannel pipette (LTS P10), 5 µL protein was dispensed into 8 columns of a 384-well plate, followed by 5 µL of 4% DMSO in AlphaScreen assay buffer. The mixture was incubated at room temperature for 15 minutes, followed by dispensing 5 µL peptide across 8 rows of the 384-well plate, forming a cross-gradient of protein and peptide. The contents were incubated for 30 minutes at room temperature, followed by the addition of 5 µL of a mixture of AlphaScreen Streptavidin donor beads and Nickel Chelate acceptor beads in AlphaScreen assay buffer (20 µg/mL final). The samples were incubated for 60-120 minutes at room temperature in the dark, followed by measurement of luminescence on a BMG Labtech Pherastar plate reader (Software Ver. 5.30 R3, Firmware Ver. 1.21). The data was plotted in Prism Ver 7.01 (GraphPad Software, Inc.) and fitted to a linear model in order to determine the optimal concentration of protein and peptide within the linear signal range for each reader domain.
as §1

In test [1] the target is T3, KDM7B (PHD-JmjC) (Homo sapiens, UniProt Q9UPP1).
T3 construct: A dual-domain construct of KDM7A/B(PHD-JmjC), consisting of a JmjC domain in addition to the PHD-finger; His; made in house
T3 sequence (Q9UPP1 37-483 limits assumed): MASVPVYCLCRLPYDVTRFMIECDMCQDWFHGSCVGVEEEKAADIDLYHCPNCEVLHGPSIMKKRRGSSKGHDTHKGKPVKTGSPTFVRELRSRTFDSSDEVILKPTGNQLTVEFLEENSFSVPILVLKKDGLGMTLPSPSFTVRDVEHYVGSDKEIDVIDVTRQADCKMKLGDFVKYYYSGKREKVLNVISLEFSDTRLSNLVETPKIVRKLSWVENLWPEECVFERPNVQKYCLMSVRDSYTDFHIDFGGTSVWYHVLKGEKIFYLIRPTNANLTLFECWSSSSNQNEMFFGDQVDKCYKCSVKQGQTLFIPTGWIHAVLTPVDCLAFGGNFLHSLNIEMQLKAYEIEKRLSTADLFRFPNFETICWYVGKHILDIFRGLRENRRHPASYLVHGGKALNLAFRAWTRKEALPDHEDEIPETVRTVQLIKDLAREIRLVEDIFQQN
Nature of the test: AlphaScreen displacement of H3K4me3-Bn from His-KDM7B(PHD-JmjC). The test is classed as binding. To be noted: AlphaScreen displacement of H3K4me3-Bn; n = 3; NI = No inhibition seen at 100 μM; read-out: IC50 KDM7B (PHD-JmjC) (Displacement). The method, then: (§2) A dual-domain construct of KDM7A/B(PHD-JmjC), consisting of a JmjC domain in addition to the PHD-finger (Fig. 1B), was used to test for allosteric inhibition through binding at the PHD-finger.
as §1

The next test deals with T4, KDM7B(PHD) (Homo sapiens, UniProt Q9UPP1).
T4 construct: made in house
T4 sequence (Q9UPP1 41-92 limits assumed): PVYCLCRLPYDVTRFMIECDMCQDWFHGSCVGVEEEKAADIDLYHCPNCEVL
Nature of the test: AlphaScreen displacement of H3K4me3-Bn from His-KDM7B(PHD). As to conditions: AlphaScreen; 12.5 nM protein and 12.5 nM peptide; n ≥ 3; read-out: IC50 for displacement of H3K4me3-Bn from His-KDM7B(PHD). The test is classed as binding. The method, then:
as §1

The next test addresses T5, KDM7A(PHD) (Homo sapiens, UniProt Q6ZMT4).
T5 construct: made in house
T5 sequence (Q6ZMT4 37-88 limits assumed): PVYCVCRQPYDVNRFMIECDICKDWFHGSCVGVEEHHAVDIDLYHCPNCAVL
The test is described as follows: AlphaScreen displacement of H3K4me3-Bn from His-KDM7A(PHD). To be noted: AlphaScreen; 6.25 nM KDM7A(PHD) and 25 nM peptide; n ≥ 3; read-out: IC50 for displacement of H3K4me3-Bn from His-KDM7A(PHD). The test is classed as binding. The method, then:
as §1

Test [2] has as its target T3, KDM7B (PHD-JmjC). The test is described as follows: MALDI-TOF MS H3K9me2 demethylation assay, KDM7B(PHD-JmjC). The test is classed as biochemical. As to conditions: at 100 µM; MALDI-TOF MS; substrate H3(1–5)K4me3K9me2; read-out: KDM7B (PHD-JmjC) (Catalytic), inhibition of H3K9me2 demethylation. The method, then: H3(1–15)K9me2 and H3(1–5)K4me3K9me2 were used as substrates for KDM7A(PHD-JmjC) and KDM7B(PHD-JmjC), respectively. […] For KDM7B(PHD-JmjC), inhibition was most pronounced for 1a (95%) and 2a (89%) whilst others inhibited more weakly (Table 4).
For KDM7(PHD-JmjC) assays, 2.5 µM enzyme was used, with 5 µM H3(1-15)K9me2 peptide substrate for KDM7A or H3(1-15)K4me3K9me2 for KDM7B. Final concentrations were: 1mM ascorbate, 50 µM (NH4)2Fe(II)(SO4)2 and 200 µM 2OG. The mixture was quenched using formic acid after 10 minutes (KDM7A) or 5 minutes (KDM7B).

Test [3] is described as follows: AlphaScreen biotin-His6 counterscreen. To be noted: AlphaScreen interference counterscreen with biotin-His6; unit inferred; DNC = data did not converge to binding model; NM = not measurable within the solubility range.
For the next test, the system named is KDM5A(PHD3). Details: method as in PMID 22994852. As to conditions: HaloTag-based peptide displacement assay; read-out: IC50 for inhibition of binding of KDM5A(PHD3) to H3K4me3; cited from earlier work.
Test [4] addresses KDM7A (PHD-JmjC) (Homo sapiens, UniProt Q6ZMT4). The test is described as follows: AlphaScreen displacement of H3K4me3-Bn from His-KDM7A(PHD-JmjC). The test is classed as binding. As to conditions: AlphaScreen displacement of H3K4me3-Bn; n = 3; NI = No inhibition seen at 100 μM; read-out: IC50 KDM7A (PHD-JmjC) (Displacement). The method, then:
as §2, §1

Test [5] has as its system KDM7A (PHD-JmjC). The test is described as follows: MALDI-TOF MS H3K9me2 demethylation assay, KDM7A(PHD-JmjC). As to conditions: at 100 µM, substrate H3(1–15)K9me2. Type of test: biochemical, human. As for the experimental part: Final concentrations were: 1mM ascorbate, 50 µM (NH4)2Fe(II)(SO4)2 and 200 µM 2OG. The mixture was quenched using formic acid after 10 minutes (KDM7A) or 5 minutes (KDM7B).

The IC50 is the concentration needed to halve the response being measured. As usually defined, the inhibition is the relative decrease from the control value, in per cent.

Structures are written as SMILES. Values joined by “and” are separate entries in the source; they are usually repeats but may differ in a detail not shown here. Equal values may be shown once.

Sequence of KDM7A (PHD-JmjC) (Homo sapiens, UniProt Q6ZMT4) (Q6ZMT4 37-386 limits assumed): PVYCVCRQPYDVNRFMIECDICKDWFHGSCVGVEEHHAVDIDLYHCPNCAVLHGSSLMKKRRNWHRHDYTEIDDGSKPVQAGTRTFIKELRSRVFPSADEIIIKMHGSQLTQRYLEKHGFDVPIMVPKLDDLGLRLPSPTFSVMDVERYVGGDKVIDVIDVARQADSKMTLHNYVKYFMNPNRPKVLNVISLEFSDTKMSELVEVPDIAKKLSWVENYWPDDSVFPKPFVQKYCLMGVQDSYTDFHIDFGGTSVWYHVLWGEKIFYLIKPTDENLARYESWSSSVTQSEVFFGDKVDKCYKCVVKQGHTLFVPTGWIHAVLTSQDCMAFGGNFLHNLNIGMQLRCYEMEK

`CCCCc1oc2ccccc2c1C(=O)c1cc(I)c(OCC[N+](C)(C)C)c(I)c1.[I-]` [WAG-003, 2-(4-(2-Butylbenzofuran-3-carbonyl)-2,6-diiodophenoxy)-N,N,N-trimethylethanaminium iodide, reference compound]: the IC50 is 976 ± 146 µM at KDM7C(PHD); 1660 ± 490 µM at His-KDM5A(PHD3) (AlphaScreen, 25 nM protein and 25 nM peptide, average ± StdDev, n ≥ 3, NM = not measurable within the solubility range, read-out: IC50 for displacement of H3K4me3-Bn from His-KDM5A(PHD3)); above 100 µM on KDM7B (PHD-JmjC) [1]; 307 ± 76 µM at KDM7B(PHD); 2230 ± 790 µM at KDM7A(PHD); 11300 ± 1260 µM in [3]. The half-inhibitory concentration (IC50) is 30 to 40 µM and 30 µM in the test with KDM5A(PHD3); above 100 µM at KDM7A (PHD-JmjC) [4]. The “fold higher IC50 in this AlphaScreen assay than reported with the Halo-tag assay” value at His-KDM5A(PHD3) (KDM5A(PHD3), compared with reported 30–40 µM) is above 50 fold. Further, the inhibition at 100 µM at KDM7B (PHD-JmjC) [2] amounted to 22%. In addition, the “KDM7A (PHD-JmjC) (Catalytic), inhibition of H3K9me2 demethylation” value in the test with KDM7A (PHD-JmjC) [5] was 17% (100 µM).
